The test system of experiment [1] is trypsin. Set-up: method as in COVID Moonshot. Particulars: Docking_validation.csv; ref COVID Moonshot; read-out: trypsin_IC50; cited from earlier work.
Experiment [2] deals with recombinant SARS-CoV-2 main protease Mpro (Severe acute respiratory syndrome coronavirus 2, UniProt P0DTC1). Kind of experiment: FRET-based Mpro proteolytic activity assay. Format: biochemical. Particulars: for IC50: Mpro FRET (1 μM DTT).
Experiment [3] concerns SARS-CoV-2 main protease. The experiment is classed as biochemical. Particulars: Docking validation set, class assigned from COVID Moonshot IC50.
Experiment [4] deals with SARS-CoV-2 main protease. Particulars: Docking_validation.csv; ref COVID Moonshot; read-out: f_avg_IC50; cited from earlier work.
For experiment [5], the target named is human Cathepsin L (Homo sapiens, UniProt P07711). Kind of experiment: Fluorimetric human liver Cathepsin L (hCatL) activity assay. Format: biochemical. Particulars: reference inhibitor.
In experiment [6] the test system is SARS, SARS-CoV-2 and MERS Mpro. Particulars: Origin COVID_Moonshot; ref COVID Moonshot; cited from earlier work.
The subject of experiment [7] is Mpro. Particulars: ML dataset, Origin COVID_Moonshot; ref COVID Moonshot; cited from earlier work.
Experiment [8] concerns host–cell proteases, such as cathepsin L. Further details: method as in PMID 34726479, PMID 35352927, PMID 33158912. Particulars: cited from earlier work.

Sequence of human Cathepsin L (P07711 114-333 limits assumed): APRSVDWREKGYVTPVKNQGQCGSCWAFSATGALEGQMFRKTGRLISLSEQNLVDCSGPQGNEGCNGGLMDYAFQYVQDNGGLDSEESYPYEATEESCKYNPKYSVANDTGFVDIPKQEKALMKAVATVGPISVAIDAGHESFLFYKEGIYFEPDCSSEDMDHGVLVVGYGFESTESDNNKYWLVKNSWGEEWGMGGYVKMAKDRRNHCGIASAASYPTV

For the compound `O=C(Oc1cncc(Cl)c1)c1cccc2[nH]ccc12` [ALP-POS-c59291d4-5, O=C(Oc1cncc(Cl)c1)c1cccc2[nH]ccc12], the IC50 in experiment [1] is 99 µM. Consider `Cc1cncc(CC(=O)N2CCC[C@H]2c2cccc(Cl)c2)c1` [Compound 7, (S)-1-(2-(3-chlorophenyl)pyrrolidin-1-yl)-2-(5-methylpyridin-3-yl)ethan-1-one], for which the IC50 in experiment [2] turned out to be 5.6 µM.

For the compound `Cc1cncc(CC(=O)N2CCc3cc(Cl)c(Cl)cc3C2)c1` [Compound 12, 1-(6,7-dichloro-3,4-dihydroisoquinolin-2(1H)-yl)-2-(5-methylpyridin-3-yl)ethan-1-one], the IC50 in experiment [2] came out at 2.3 µM. In experiment [2] (relative to the parent hit (compound 8 or 10)), the “fold improvement of Mpro FRET IC50 after first round of optimization” value worked out at 27 fold. Consider `CCn1cncc1NC(=O)C1c2cc(Cl)cc(Cl)c2OCC1C` (centres unmarked) [Compound 21, 6,8-dichloro-N-(1-ethyl-1H-imidazol-5-yl)-3-methylchromane-4-carboxamide], for which, in experiment [2], the IC50 came to 66.9 µM.

As for `O=C(Cc1cccc(Cl)c1)Nn1cnc2ccccc2c1=O` [JAN-GHE-5a013bed-3, O=C(Cc1cccc(Cl)c1)Nn1cnc2ccccc2c1=O], the IC50 is 99 µM in experiment [1] and 8.65 µM in experiment [4]. The “label (active / inactive)” value in experiment [3] was “inactive”. Turning to `CC(=O)N[C@@H](CC(C)C)C(=O)N[C@@H](CC(C)C)C(=O)N[C@H](C=O)CCCNC(=N)N` [Leupeptin], the IC50 in experiment [5] is around 0.002 µM. Turning to `O=C(Nc1cncc2ccccc12)C1=CCCc2ccc(Cl)cc21` [MAT-POS-0c8fa4a7-1, O=C(Nc1cncc2ccccc12)C1=CCCc2ccc(Cl)cc21], the IC50 in experiment [6] is 0.233 µM; in experiment [7], 0.157 µM; in experiment [4], 0.233 µM.

For `O=C1CC(Oc2cc(Cl)cc(CC(=O)Nn3cnc4ccccc43)c2)N1` (centres unmarked) [MAT-POS-c478e61b-1, O=C1CC(Oc2cc(Cl)cc(CC(=O)Nn3cnc4ccccc43)c2)N1], in experiment [3], the “label (active / inactive)” value is “inactive”. Moreover, the IC50 is 90.6 µM in experiment [7] and 82.1 µM in experiment [4]. As to `Cc1ccncc1NC(=O)Cc1cncc(Cl)c1` [TRY-UNI-2eddb1ff-2, Cc1ccncc1NC(=O)Cc1cncc(Cl)c1], the IC50 in experiment [1] is 99 µM; in experiment [4] it was 46.4 µM. Besides, the “label (active / inactive)” value in experiment [3] was “inactive”. Turning to `Cn1cnc(Cn2c(=O)[nH]/c(=N\c3cc4cn(C)nc4cc3Cl)n(Cc3cc(F)c(F)cc3F)c2=O)n1` [ensitrelvir], the “inhibitory activity against host–cell proteases, such as cathepsin L” value in experiment [8] was “no inhibitory activity”. Regarding Nirmatrelvir–ritonavir, the “inhibitory activity against host–cell proteases, such as cathepsin L” value in experiment [8] was “no inhibitory activity”.

Values taken from PMC11187573, “Identification of SARS-CoV-2 Mpro inhibitors through deep reinforcement learning for de novo drug design and computational chemistry approaches” (RSC Medicinal Chemistry, 2024).
